Measured values as given in patent US20250134928A1, “METHODS FOR IDENTIFYING AND USING ALLOGENEIC TUMOR INFILTRATING LYMPHOCYTES TO TREAT CANCER” (OBSIDIAN THERAPEUTICS, INC., priority 2022, published 2025).

Test system: regulated mbIL15 TILs
Assay: ACZ dose response of IL15 expression and signaling, phospho-flow cytometry
Type: cell-based, human
Settings: 18 hours, 0.1-100 μM ACZ
Procedure: Pre-REP TILs were prepared similarly to the methods of Example 1-3 and 9, and unengineered and mbIL15 TIL generated accordingly as described in Examples 1-3 and 9. Engagement of the IL15 signaling pathway results in phosphorylation of signal transducers downstream, including the transcription factor protein STAT5 and ribosomal protein S6. […] Next, the regulated mbIL15 TILs were regulated for 18 hours in the presence of a range of concentrations of ACZ including 0.1, 1, 2.5, 5, 10, 25, 100 μM, as well as vehicle control. The regulated mbIL15 TILs were then collected for staining and FACS analysis.
Briefly, cells were stained using antibodies for CD3, CD4, CD8, IL15 and a Live/Dead marker. Then cells were fixed in 2% formaldehyde (BD Cytofix) and permeabilized using a methanol-based buffer (BD Phospho Perm III Buffer) before staining with antibodies specific for phosphorylated STAT5 (Biolegend) and S6 (Cell Signaling Technology). Cells were acquired on the BD Symphony and analyzed using FlowJo software.

## CC(=O)Nc1nnc(S(N)(=O)=O)s1 [ACZ, acetazolamide]
  staining intensity of pSTAT5 and pS6: increased with higher concentrations of ACZ
Four donors
  ACZ concentration at which mbIL15 expression plateaus: 10 to 25 µM
